{
  "source": "patent US6641840B2",
  "about": "“Sustained release formulations for growth hormone secretagogues” (Pfizer Inc., priority 2000, dated 2003)",
  "key": {"IGF-1": {"system": "IGF-1", "test": "Clinical study in subjects 65-84 years: change from baseline in IGF-1", "type": "in vivo, human", "protocol": "This clinical study was performed in male and female subjects between the ages of 65 and 84 years inclusive, and whose baseline IGF-1 levels were <150 ng/ml.\nThe study was a double blind, parallel group, placebo-controlled study.\n(All dosage forms in this part of the study were immediate release dosage forms.)\nIn addition, an extension study was conducted to evaluate the relationship between peak GH concentrations or IGF-I versus surrogate responses such as lipid concentrations and body composition. A sustained release (SR) formulation was also evaluated, either alone or combined with an immediate release (IR) formulation (24-30 patients per group). [16 mg (10 SR, 6 IR) h.s. (h.s. means at bedtime); 16 mg (10 SR, 6 IR) h.s. every third day; 16 mg SR h.s.; and placebo.] The formulations are set forth below.\nStudy active compound was supplied in blisterpaks, with five tablets to be taken at time of each dosing. Subjects were instructed to take the tablets with one glass of water at bedtime.\nReturn visits were scheduled at 1, 2, and 4 weeks after baseline. […] The baseline and all subsequent follow-up visits were performed at the same time of day (between approximately 8-11 am).\nA follow-up evaluation was made at 1, 2, and 4 weeks. Vital signs were obtained and the skin of the face, trunk and upper extremities was inspected.\nThe primary efficacy endpoint was the percentage change from baseline in IGF-1. Secondary outcomes included insulin-like growth factor binding protein 3 (IGFBP-3), cholesterol subfractions, and percent changes in total adipose and total lean tissue. Changes in each of the secondary efficacy measures over time were examined systematically either graphically or in tabular form and summarized using appropriate descriptive statistics as is well known in the art."}, "rat pituitary cells": {"system": "rat pituitary cells", "test": "Pituitary cell desensitization - intracellular calcium assay", "type": "cell-based", "from_the_text": "Thus, it appears that sustained release formulations would not provide the desired in vivo response. The experiment was designed so that changes in intracellular calcium concentration could be continuously monitored during successive exposures of the same cells to the indicated test substances.\nRat pituitary cells were isolated as described in Example 3 and plated onto poly-D-lysine-coated glass coverslips, one coverslip per well in 12-well plates, at a density of 3-4×10^5 cells per well. Assays were performed 3-4 days after plating. Cells were loaded with 5 μM fura-2 AM (Molecular Probes, Eugene, Oreg.), a calcium-sensitive fluorescent dye, by incubation for 30 min at room temperature. Fura-2 was dissolved in dimethylsulfoxide at 5 mM, then diluted into KRH buffer (115 mM NaCl, 5.4 mM KCl, 1.8 mM CaCl2, 1 mM MgCl2, 0.96 mM NaH2PO4, 25 mM HEPES, 6 mM glucose and 0.05% bovine serum albumin, adjusted to pH 7.3)\nTo assay changes in intracellular calcium concentration, a coverslip with attached cells was mounted in a perfusion chamber on the stage of an inverted microscope (Zeiss Axiovert 135 with epifluorescence, Geschaftsbereich Mikroscopie, Oberkochen, Germany) and continuously superfused at room temperature. After superfusion with KRH for 1-2 min, baseline fluorescence was recorded. Each test substance was applied for 2 min, followed by washout with KRH prior to stimulation with the next test substance. Up to 20 individual cells per field were selected for recording and were excited alternately at wavelengths of 380 nm or 340 nm (slit width 15 nm). Fluorescence emission at 510 nm was collected at 5 sec intervals by a low light CCD camera (Hamamatsu Photonics, Hamamatsu City, Japan), and digitized images for the two excitation wavelengths were analyzed using Videoprobe software (ETM Systems, Irvine, Calif.) to determine the 340 nm/380 nm fluorescence ratio for individual cells during each time interval. The 340 nm/380 nm fluorescence ratio is proportional to the concentration of intracellular calcium."}, "[1]": {"test": "Excipient selection based on active compound solubility screening", "type": "physicochemical", "conditions": "for solubility at 5 min: filtrate of excipient solution in water, 37 °C, thermodynamic from solid", "protocol": "Such excipients are useful in making osmotic sustained release tablets. […] The active compound solubility measured in this manner exceeded 150 mgA/ml (mgA is the milligrams of active compound).\nThe excipients were screened by preparing a saturated solution (unless otherwise noted) of the candidate excipient in water at 37° C. for 2 hrs, and filtering the undissolved portion. […] The solution was maintained at 37° C. for 5 minutes prior to making the visual observation for any undissolved particulates."}},
  "note": "Like-named read-outs stand apart in the source and are kept apart here.",
  "data": [
    {"molecule": "CN1N=C2CCN(C(=O)[C@@H](COCc3ccccc3)NC(=O)C(C)(C)N)C[C@@]2(Cc2ccccc2)C1=O.O=C(O)C(O)C(O)C(=O)O", "note": "[Compound A]", "values": [
      {"measurement": "average rise of IGF-I", "setting": "IGF-1; extension study, 16 mg (10 SR, 6 IR) h.s. every third day", "value": "approximately 10%"},
      {"measurement": "IGF-I", "setting": "IGF-1; extension study, each of the 2 groups dosed daily (16 mg (10 SR, 6 IR) h.s.; 16 mg SR h.s.)", "value": "increases"},
      {"measurement": "increase in IGF-I", "setting": "IGF-1; first leg, both groups administered 9 mg daily (3 mg tid; 3 mg am and 6 mg pm), immediate release, subjects 65-84 years", "value": "approximately 35%"},
      {"measurement": "calcium flux on re-exposure to Compound A after washout", "setting": "rat pituitary cells; cells that initially responded to Compound A or GHRP-6", "value": "refractory"},
      {"measurement": "desensitization between GHRH and Compound A", "setting": "rat pituitary cells; intracellular calcium, successive exposures", "value": "no desensitization"},
      {"measurement": "cellular responses (intracellular calcium) on repeated exposure", "setting": "rat pituitary cells; successive 2 min exposures with washout", "value": "homologous desensitization"},
      {"measurement": "visual observation on addition of Compound A", "setting": "[1]; L-lysine solution 50 mg/ml, 37° C.", "value": "cloudy gel"},
      {"measurement": "solubility at 5 min", "setting": "[1]; aqueous buffer, L-lysine solution 50 mg/ml (below saturation), 37° C., read-out: COMPOUND A Solubility", "value": "< 50", "unit": "mg/mL"},
      {"measurement": "solubility at 5 min", "setting": "[1]; aqueous buffer, saturated L-arginine solution, approx. 150 mg/ml, 37° C., read-out: COMPOUND A Solubility", "value": "< 50", "unit": "mg/mL"},
      {"measurement": "solubility at 5 min", "setting": "[1]; aqueous buffer, saturated L-aspartic acid solution, approx. 7 mg/ml, 37° C., read-out: COMPOUND A Solubility", "value": "> 150", "unit": "mg/mL"},
      {"measurement": "solubility at 5 min", "setting": "[1]; aqueous buffer, saturated ascorbic acid solution, approx. 400 mg/ml, 37° C., read-out: COMPOUND A Solubility", "value": "> 150", "unit": "mg/mL"},
      {"measurement": "solubility at 5 min", "setting": "[1]; aqueous buffer, saturated citric acid solution, approx. 600 mg/ml, 37° C., read-out: COMPOUND A Solubility", "value": "> 150", "unit": "mg/mL"},
      {"measurement": "solubility at 5 min", "setting": "[1]; aqueous buffer, saturated fumaric acid solution, approx. 10 mg/ml, 37° C., read-out: COMPOUND A Solubility", "value": "> 150", "unit": "mg/mL"},
      {"measurement": "solubility at 5 min", "setting": "[1]; aqueous buffer, saturated potassium phosphate monobasic solution, approx. 400 mg/ml, 37° C., read-out: COMPOUND A Solubility", "value": "< 50", "unit": "mg/mL"},
      {"measurement": "solubility at 5 min", "setting": "[1]; aqueous buffer, saturated sodium bitartrate solution, approx. 110 mg/ml, 37° C., read-out: COMPOUND A Solubility", "value": "> 150", "unit": "mg/mL"},
      {"measurement": "solubility at 5 min", "setting": "[1]; aqueous buffer, saturated sodium citrate solution, approx. 520 mg/ml, 37° C., read-out: COMPOUND A Solubility", "value": "< 50", "unit": "mg/mL"},
      {"measurement": "solubility at 5 min", "setting": "[1]; aqueous buffer, saturated sodium phosphate monobasic solution, approx. 1000 mg/ml, 37° C., read-out: COMPOUND A Solubility", "value": "< 50", "unit": "mg/mL"},
      {"measurement": "solubility at 5 min", "setting": "[1]; aqueous buffer, saturated sodium phosphate tribasic solution, approx. 290 mg/ml, 37° C., read-out: COMPOUND A Solubility", "value": "< 50", "unit": "mg/mL"},
      {"measurement": "solubility at 5 min", "setting": "[1]; aqueous buffer, saturated succinic acid solution, approx. 80 mg/ml, 37° C., read-out: COMPOUND A Solubility", "value": "> 150", "unit": "mg/mL"},
      {"measurement": "solubility at 5 min", "setting": "[1]; aqueous buffer, sodium bitartrate buffer, read-out: solubility of the active compound", "value": "> 150", "unit": "mg/mL"},
      {"measurement": "solubility at 5 min", "setting": "[1]; aqueous buffer, tartaric acid solution 50 mg/ml (below saturation), 37° C., read-out: COMPOUND A Solubility", "value": "> 150", "unit": "mg/mL"},
      {"measurement": "solubility at 5 min", "setting": "[1]; aqueous with cosolvent or surfactant or cyclodextrin, cyclodextrin, sulfobutylether solution, approx. 1000 mg/ml, 37° C., read-out: COMPOUND A Solubility", "value": "100 to 150", "unit": "mg/mL"},
      {"measurement": "solubility at 5 min", "setting": "[1]; aqueous with cosolvent or surfactant or cyclodextrin, polyethylene glycol (Carbowax 3350) 50 mg/ml, 37° C., read-out: COMPOUND A Solubility", "value": "> 150", "unit": "mg/mL"},
      {"measurement": "solubility at 5 min", "setting": "[1]; aqueous with cosolvent or surfactant or cyclodextrin, sodium lauryl sulfate solution, approx. 50 mg/ml, 37° C., read-out: COMPOUND A Solubility", "value": "50 to 100", "unit": "mg/mL"},
      {"measurement": "solubility at 5 min", "setting": "[1]; aqueous with cosolvent or surfactant or cyclodextrin, sulfobutylether cyclodextrin, read-out: active compound substance solubility", "value": "100 to 150", "unit": "mg/mL"},
      {"measurement": "solubility at 5 min", "setting": "[1]; saline or isotonic, saturated potassium chloride solution, approx. 360 mg/ml, 37° C., read-out: COMPOUND A Solubility", "value": "< 50", "unit": "mg/mL"},
      {"measurement": "solubility at 5 min", "setting": "[1]; saline or isotonic, saturated sodium chloride solution, approx. 360 mg/ml, 37° C., read-out: COMPOUND A Solubility", "value": "< 50", "unit": "mg/mL"},
      {"measurement": "solubility at 5 min", "setting": "[1]; visual screening, 37° C., read-out: active compound solubility measured in this manner", "value": "> 150", "unit": "mg/mL"},
      {"measurement": "solubility at 5 min", "setting": "[1]; water, calcium stearate < 1 mg/ml, prepared at 2 mg/mL, 37° C., read-out: COMPOUND A Solubility", "value": "> 150", "unit": "mg/mL"},
      {"measurement": "solubility at 5 min", "setting": "[1]; water, magnesium stearate < 1 mg/ml, 37° C., read-out: COMPOUND A Solubility", "value": "> 150", "unit": "mg/mL"},
      {"measurement": "solubility at 5 min", "setting": "[1]; water, microcrystalline cellulose (Avicel PH102) < 1 mg/ml, prepared at 80 mg/ml, 37° C., read-out: COMPOUND A Solubility", "value": "> 150", "unit": "mg/mL"},
      {"measurement": "solubility at 5 min", "setting": "[1]; water, microcrystalline cellulose, silicified (Prosolv SMCC50) < 1 mg/ml, prepared at 80 mg/ml, 37° C., read-out: COMPOUND A Solubility", "value": "> 150", "unit": "mg/mL"},
      {"measurement": "visual observation on addition of Compound A", "setting": "[1]; saturated potassium chloride solution, 37° C.", "value": "cloudy gel"},
      {"measurement": "visual observation on addition of Compound A", "setting": "[1]; saturated sodium chloride solution, 37° C.", "value": "cloudy gel"},
      {"measurement": "visual observation on addition of Compound A", "setting": "[1]; saturated sodium citrate solution, 37° C.", "value": "cloudy gel"},
      {"measurement": "visual observation on addition of Compound A", "setting": "[1]; saturated sodium phosphate monobasic solution, 37° C.", "value": "cloudy gel"},
      {"measurement": "visual observation on addition of Compound A", "setting": "[1]; saturated sodium phosphate tribasic solution, 37° C.", "value": "cloudy gel"},
      {"measurement": "visual observation on addition of Compound A", "setting": "[1]; sodium lauryl sulfate solution 50 mg/ml, 37° C.", "value": "clear gel"}
    ]}
  ]
}
